Patent US5726200A, “Pro-drugs for CCK antagonists” (Warner-Lambert Company, priority 1996, dated 1998)

The compounds below were run against T1, CCK-B receptor (Mus musculus, UniProt P56481) (assay: Displacement of tritiated-pentagastrin binding to mouse cerebral cortical membranes). Details: displacement of 2 nM tritiated-pentagastrin, n = number of assays, read-out: Receptor Affinity CCI-B (Ki).
T1 construct: from tissue; host or cells: cerebral cortex membranes of male CFLP mice
T1 sequence (P56481 1-453): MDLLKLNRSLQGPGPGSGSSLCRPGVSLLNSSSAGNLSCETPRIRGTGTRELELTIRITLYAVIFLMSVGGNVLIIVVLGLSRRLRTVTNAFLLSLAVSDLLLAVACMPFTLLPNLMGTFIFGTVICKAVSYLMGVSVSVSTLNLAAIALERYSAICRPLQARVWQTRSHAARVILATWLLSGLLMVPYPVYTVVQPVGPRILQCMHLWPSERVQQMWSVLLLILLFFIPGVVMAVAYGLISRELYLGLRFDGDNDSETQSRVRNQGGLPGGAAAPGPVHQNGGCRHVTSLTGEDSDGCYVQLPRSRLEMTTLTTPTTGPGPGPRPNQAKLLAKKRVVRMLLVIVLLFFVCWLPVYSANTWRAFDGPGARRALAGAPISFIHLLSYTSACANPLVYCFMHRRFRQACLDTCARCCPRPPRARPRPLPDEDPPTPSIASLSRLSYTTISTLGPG
Design: species or system mouse (male CFLP mice)
Procedure: The biological activity of compounds of the present invention was evaluated employing an initial screening test which rapidly and accurately measured the binding of the tested compound to known CCK receptor sites. […] (See Hays et al, Neuropeptides 1:53-62, 1980; and Satuer et al, Science 208:1155-1156, 1980).
In this screening test, the cerebral cortices taken from male CFLP mice weighing between 30-40 g were dissected on ice, weighed, and homogenized in 10 volumes of 50 mM Tris-HCl buffer (pH 7.4 at 0°-4° C.). The resulting suspension was centrifuged, the supernate was discarded, and the pellet was washed by resuspension in Tris-HCl buffer followed by recentrifugation. The final pellet was resuspended in 20 volumes of […] Hepes buffer (pH 7.2 at 23° C.) containing 130 mM NaCl, […] KCl, […] MgCl2, […] EDTA, 5 mg/mL bovine albumin, and bacitracin (0.25 mg/mL).
In saturation studies, cerebral cortical membranes were incubated at 23° C. for 120 minutes in a final volume of 500 μL of Hepes incubation buffer (pH 7.2) together with 0.2-20 nM tritiated-pentagastrin (Amersham International, England).
In the displacement experiments, membranes were incubated with a single concentration (2 nM) of iigand, together with increasing concentrations (10^-11 to […]) of competitive test compound. In each case, the nonspecific binding was defined as that persisting in the presence of the unlabeled octapeptide CCK26-33 (10^-6 M).
Following incubation, radioactivity bound to membranes was separated from that free in solution by rapid filtration through Whatman GF/B filters and washed three times with 4 mL of ice cold Tris-HCl buffer. Filters from samples incubated with tritiated-pentagastrin were placed in polyethylene vials with 4 mL of scintillation cocktail, and the radioactivity was estimated by liquid scintillation spectrometry (efficiency 47-52%).
The specific binding to CCK receptor sites was defined as the total bound tritiated-pentagastrin minus the amount of tritiated-pentagastrin bound in the presence of 10^-6 octapeptide, CCK26-33.
Saturation curves for specific tritiated-pentagastrin binding to mouse cortical membranes were analyzed by the methods of Scatchard (Ann. New York Acad. Sci. 51:660-672, 1949, and Hill (J. Physiol. 40:IV-VIII, 1910, to provide estimates for the maximum number of binding sites (Bmax) and the equilibrium dissociation constant (Ka).
In displacement experiments, inhibition curves were analyzed by either logit-log plots or the iterative curve fitting computer program ALLFIT (DeLean, Munson and Redbard, 1978) to provide estimates of the IC50 and nH (apparent Hill coefficient) values). (IC50 values were defined as the concentration of test compound required to produce 50% inhibition of specific binding.)
The inhibition constant (Ki) of the test compound was then calculated according to the Cheng-Prusoff equation: [formula] where [L] is the concentration of radiolabel and Ka is the equilibrium dissociation constant.

| Compound | Ki [nM] |
| --- | --- |
| COC(=O)CC[C@H](NC(=O)[C@H](Cc1ccccc1)NC(=O)[C@@](C)(Cc1c[nH]c2ccccc12)NC(=O)OC1C2CC3CC(C2)CC1C3)C(=O)OC (stereo partly drawn) [Compound 5f] | 110 |
| C[C@](Cc1c[nH]c2ccccc12)(NC(=O)OC1C2CC3CC(C2)CC1C3)C(=O)N[C@@H](Cc1ccccc1)C(=O)N[C@@H](CC(=O)O)C(=O)O (stereo partly drawn) [Compound 6h, L-Aspartic acid, N-[N-[α-methyl-N-[(tricyclo[3.3.1.1^3,7]dec-2-yloxy)carbonyl]-D-tryptophyl]-L-phenylalanyl]] | 1170 |
| C[C@](Cc1c[nH]c2ccccc12)(NC(=O)OC1C2CC3CC(C2)CC1C3)C(=O)N[C@@H](Cc1ccccc1)C(=O)NCC(=O)O (stereo partly drawn) [Compound 6j, Glycine, N-[2-methyl-N-[(tricyclo[3.3.1.1^3,7]dec-2-yloxy)carbonyl]-D-tryptophyl]-L-phenylalanyl-] | 7.41 ± 1.04 |
| C[C@](Cc1c[nH]c2ccccc12)(NC(=O)OC1C2CC3CC(C2)CC1C3)C(=O)N[C@@H](Cc1ccccc1)C(=O)N[C@@H](CCC(=O)O)C(=O)O (stereo partly drawn) [Compound 6i, L-Glutamic acid, N-[N-[α-methyl-N-[(tricyclo[3.3.1.1^3,7]dec-2-yloxy)carbonyl]-D-tryptophyl]-L-phenylalanyl]] | 1520 |
| C[C@](Cc1c[nH]c2ccccc12)(NC(=O)OC1C2CC3CC(C2)CC1C3)C(=O)N[C@@H](Cc1ccccc1)C(=O)NCCC(=O)O (stereo partly drawn) [Compound 6a, β-Alanine, N-[N-[α-methyl-N-[(tricyclo[3.3.1.1^3,7]-dec-2-yloxy)carbonyl]-D-tryptophyl]-L-phenylalanyl]] | 27.9 ± 4.1 |
| COC(=O)CCCCCNC(=O)[C@H](Cc1ccccc1)NC(=O)[C@@](C)(Cc1c[nH]c2ccccc12)NC(=O)OC1C2CC3CC(C2)CC1C3 (stereo partly drawn) [Compound 5d, L-Phenylalaninamide, α-methyl-N-[(tricyclo[3.3.1.1^3,7]dec-2-yloxy)carbonyl]-D-tryptophyl-N-(6-methoxy-6-oxohexyl)] | 173 |

More lines, now with the values ahead:

| Ki [nM] | Compound |
| --- | --- |
| 10.6 ± 0.12 | C[C@](Cc1c[nH]c2ccccc12)(NC(=O)OC1C2CC3CC(C2)CC1C3)C(=O)N[C@H](CC(=O)NCCCC(=O)O)Cc1ccccc1 (stereo partly drawn) [Compound 11l, Butanoic acid, 4-[[3-[[3-(1H-indol-3-yl)-2-methyl-1-oxo-2-[[(tricyclo[3.3.1.1^3,7]dec-2-yloxy)carbonyl]amino]propyl]amino]-1-oxo-4-phenylbutyl]amino]-, [R-(R*,S*)]] |
| 21.2 ± 5.4 | COC(=O)CCNC(=O)C[C@H](Cc1ccccc1)NC(=O)[C@@](C)(Cc1c[nH]c2ccccc12)NC(=O)OC1C2CC3CC(C2)CC1C3 (stereo partly drawn) [Compound 10a, β-Alanine, N-[3-[[3-(1H-indol-3-yl)-2-methyl-1-oxo-2-[[(tricyclo[3.3.1.1^3,7]dec-2-yloxy)carbonyl]amino]propyl]amino]-1-oxo-4-phenylbutyl]-, methyl ester, [R-(R*,S*)]] |
| 4.4 ± 0.6 | C[C@](Cc1c[nH]c2ccccc12)(NC(=O)OC1C2CC3CC(C2)CC1C3)C(=O)N[C@H](CC(=O)NCC(=O)O)Cc1ccccc1 (stereo partly drawn) [Compound 11k] |
| 66.4 | CCOC(=O)CCCNC(=O)C[C@H](Cc1ccccc1)NC(=O)[C@@](C)(Cc1c[nH]c2ccccc12)NC(=O)OC1C2CC3CC(C2)CC1C3 (stereo partly drawn) [Compound 10l] |
| 17.9 | CCOC(=O)CNC(=O)C[C@H](Cc1ccccc1)NC(=O)[C@@](C)(Cc1c[nH]c2ccccc12)NC(=O)OC1C2CC3CC(C2)CC1C3 (stereo partly drawn) [Compound 10k, Glycine, N-[3-[[3-(1H-indol-3-yl)-2-methyl-1-oxo-2-[[(tricyclo[3.3.1.1^3,7]dec-2-yloxy)carbonyl]amino]propyl]amino]-1-oxo-4-phenylbutyl]-, ethyl ester, [R-(R*,S*)]-] |
| 9.44 | C[C@](Cc1c[nH]c2ccccc12)(NC(=O)OC1C2CC3CC(C2)CC1C3)C(=O)N[C@H](CC(=O)NCCC(=O)O)Cc1ccccc1 (stereo partly drawn) [Compound 11a, β-Alanine, N-[3-[[3-(1H-indol-3-yl)-2-methyl-1-oxo-2-[[(tricyclo[3.3.1.1^3,7]dec-2-yloxy)carbonyl]amino]propyl]amino]-1-oxo-4-phenylbutyl]-, [R-(R*,S*)]] |
